The record followed here is patent US20060135773A1, “Trisubstituted nitrogen modulators of tyrosine phosphatases” (priority 2004, published 2006).

The term IC50 denotes the midpoint of a concentration-inhibition curve.

The target in the assay is T1, PTP-1B (Homo sapiens, UniProt P18031).
T1 construct: PTP-1B (purified, 1 mg/mL) as a 1:250 dilution
T1 sequence (P18031 1-321 limits assumed): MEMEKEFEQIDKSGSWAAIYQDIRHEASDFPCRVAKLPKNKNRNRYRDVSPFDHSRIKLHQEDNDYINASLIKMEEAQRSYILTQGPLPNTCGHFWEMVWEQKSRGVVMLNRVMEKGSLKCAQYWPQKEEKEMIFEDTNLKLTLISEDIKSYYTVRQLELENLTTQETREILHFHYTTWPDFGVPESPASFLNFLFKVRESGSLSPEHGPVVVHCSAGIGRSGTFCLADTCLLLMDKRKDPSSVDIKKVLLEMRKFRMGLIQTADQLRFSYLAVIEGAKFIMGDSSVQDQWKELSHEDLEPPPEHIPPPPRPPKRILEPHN
The assay can be described thus: pNPP tyrosine phosphatase inhibition assay, PTP-1B. The format is biochemical. As to conditions: pNPP assay, PTP-1B; read-out: Activity Class (IC50 ranges). In outline: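 Test compounds were screened at two final levels, 31.3 and 10 µM, against 4 µg/mL purified PTP-1B. The substrate was 10 mM p-nitrophenyl phosphate, with incubation for 10 min at 30°C before a K2CO3 quench. Activity was taken from A405.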

SMILES strings stand for the structures.

As for `COc1ccc(OC)c(S(=O)(=O)N(Cc2ccc(C(=O)C(=O)O)cc2)Cc2ccc(S(C)(=O)=O)cc2)c1` [Compound 113, (4-{[(2,5-Dimethoxy-benzenesulfonyl)-(4-methanesulfonyl-benzyl)-amino]-methyl}-phenyl)-oxo-acetic acid], the IC50 was over 25 µM.
Consider `COc1ccccc1S(=O)(=O)N(Cc1ccc(C(F)(F)P(=O)(O)O)c(Br)c1)c1ccc(S(C)(=O)=O)cc1` [Compound 114, [(2-Bromo-4-{[(4-methanesulfonyl-phenyl)-(2-methoxy-benzenesulfonyl)-amino]-methyl}-phenyl)-difluoro-methyl]-phosphonic acid], for which the IC50 fell in the range of 0.1 to 0.249 µM.
For `COc1ccccc1S(=O)(=O)N(Cc1ccc(-c2nnn[nH]2)cc1)Cc1ccc(S(C)(=O)=O)cc1` [Compound 115, N-(4-Methanesulfonyl-benzyl)-2-methoxy-N-[4-(1H-tetrazol-5-yl)-benzyl]-benzenesulfonamide], the IC50 is over 25 µM.
Regarding `COc1ccccc1S(=O)(=O)N(Cc1ccc(C(=O)O)cc1)Cc1ccc(-c2nnn[nH]2)cc1` [Compound 116, N-(4-[hydroxycarbonyl]-benzyl)-2-methoxy-N-[4-(1H-tetrazol-5-yl)-benzyl]-benzenesulfonamide], the IC50 was over 25 µM.
As for `COc1ccccc1S(=O)(=O)N(Cc1ccc(C#N)cc1)Cc1ccc(NS(=O)(=O)C(F)(F)F)cc1` [Compound 117, N-(4-(N-trifluoro-methanesulfonyl-amino]benzyl)-N-(4-cyanobenzyl)-(2-methoxy)benzenesulfonamide], the figure is over 25 µM.
Consider `COc1ccccc1S(=O)(=O)N(Cc1ccc(C#N)cc1)Cc1ccc(NC(=O)C(=O)O)cc1` [Compound 118, N-(4-(N-oxalylamino]benzyl)-N-(4-cyanobenzyl)-(2-methoxy)benzenesulfonamide], for which the IC50 was over 25 µM.
For `COc1ccc(OC)c(S(=O)(=O)N(Cc2ccc(C(O)CO)cc2)Cc2ccc(S(C)(=O)=O)cc2)c1` (stereo not drawn) [Compound 119, N-[4-(1,2-Dihydroxy-ethyl)-benzyl]-N-(4-methanesulfonyl-benzyl)-2,5-dimethoxy-benzenesulfonamide], the IC50 is over 25 µM.
As for `COc1ccccc1S(=O)(=O)N(Cc1ccc(C#N)cc1)Cc1ccc(C=CC(=O)O)c(Br)c1` [Compound 120, 3-{2-Bromo-4-[N-(4-cyanobenzyl)-N-(2-methoxy-benzenesulfonyl)aminomethyl]-phenyl}-acrylic acid], the figure is over 25 µM; as for `O=C(O)CCc1ccc(S(=O)(=O)N(Cc2ccc(Cl)c(Cl)c2)Cc2ccc(C(F)(F)P(=O)(O)O)c(Br)c2)cc1` [Compound 122, 3-{4-[[3-Bromo-4-(difluoro-phosphono-methyl)-benzyl]-(3,4-dichloro-benzyl)-sulfamoyl]-phenyl}-propionic acid], 0.1 to 0.249 µM.
As for `COc1ccccc1S(=O)(=O)N(Cc1ccc(C#N)cc1)Cc1ccc(C(O)C(O)C(=O)O)c(Br)c1` (stereo not drawn) [Compound 123, 1,2-dihydroxy-3-{2-Bromo-4-[N-(4-cyanobenzyl)-N-(2-methoxy-benzenesulfonyl)aminomethyl]-phenyl}-propionic acid], the figure is over 25 µM.
`COc1ccccc1S(=O)(=O)N(Cc1ccc(C#N)cc1)Cc1ccc(C=CC(=O)O)cc1` [Compound 124, 3-{4-[N-(4-cyanobenzyl)-N-(2-methoxy-benzenesulfonyl)aminomethyl]-phenyl}-acrylic acid]: the half-maximal inhibitory concentration (IC50) is over 25 µM.
As to `COc1ccccc1S(=O)(=O)N(Cc1ccc(C(=O)C(=O)O)cc1)Cc1ccc(S(C)(=O)=O)cc1` [Compound 125, (4-{[(4-Methanesulfonyl-benzyl)-(2-methoxy-benzenesulfonyl)-amino]-methyl}-phenyl)-oxo-acetic acid], the IC50 was over 25 µM.
`COc1ccccc1S(=O)(=O)N(Cc1ccc(C(=NO)C(=O)O)cc1)Cc1ccc(S(C)(=O)=O)cc1` [Compound 126, Hydroxyimino-(4-{[(4-methanesulfonyl-benzyl)-(2-methoxy-benzenesulfonyl)-amino]-methyl}-phenyl)-acetic acid]: the IC50 was over 25 µM.
As for `COc1ccccc1S(=O)(=O)N(Cc1ccc(C(O)C(=O)O)cc1)Cc1ccc(S(C)(=O)=O)cc1` (stereo not drawn) [Compound 127, Hydroxy-(4-{[(4-methanesulfonyl-benzyl)-(2-methoxy-benzenesulfonyl)-amino]-methyl}-phenyl)-acetic acid], the figure is over 25 µM; as for `COc1ccccc1S(=O)(=O)N(Cc1ccc(OCc2nn[nH]n2)cc1)Cc1ccc(S(C)(=O)=O)cc1` [Compound 128, N-(4-Methanesulfonyl-benzyl)-2-methoxy-N-[4-(2H-tetrazol-5-ylmethoxy)-benzyl]-benzenesulfonamide], over 25 µM; as for `COc1ccccc1S(=O)(=O)N(Cc1ccc(C#N)cc1)Cc1ccc(NC(=O)C(=O)O)cc1` [Compound 129, N-(4-(N-oxalylamino]benzyl)-N-(4-cyanobenzyl)-(2-methoxy)benzenesulfonamide], over 25 µM.
As for `CS(=O)(=O)N(Cc1ccc(C(F)(F)P(=O)(O)O)cc1)Cc1ccc(C(F)(F)P(=O)(O)O)cc1` [Compound 131, {[4-({[4-(Difluoro-phosphono-methyl)-benzyl]-methanesulfonyl-amino}-methyl)-phenyl]-difluoro-methyl}-phosphonic acid], the figure is 2.5 to 25 µM; as for `COc1ccccc1S(=O)(=O)N(Cc1ccc(C=CC(=O)O)cc1)Cc1ccc(C=CC(=O)O)cc1` [Compound 132, 3-(4-{[[4-(2-Carboxy-vinyl)-benzyl]-(2-methoxy-benzenesulfonyl)-amino]-methyl}-phenyl)-acrylic acid], over 25 µM.
Regarding `COc1ccccc1S(=O)(=O)N(Cc1ccc(C#N)cc1)Cc1ccc(NC(=O)C(=O)O)c(C(=O)O)c1` [Compound 133], the IC50 is over 25 µM.
Regarding `COc1ccccc1S(=O)(=O)N(Cc1ccc(S(C)(=O)=O)cc1)Cc1ccc(OCC(=O)O)c(C(=O)O)c1` [Compound 134, 2-Carboxymethoxy-5-{[(4-methanesulfonyl-benzyl)-(2-methoxy-benzenesulfonyl)-amino]-methyl}-benzoic acid], the IC50 is over 25 µM.
With `COc1ccccc1S(=O)(=O)N(Cc1ccc(C#N)cc1)Cc1ccc(Nc2c(O)c(=O)c2=O)cc1` [Compound 135, N-(4-Cyano-benzyl)-N-[4-(2-hydroxy-3,4-dioxo-cyclobut-1-enylamino)-benzyl]-2-methoxy-benzenesulfonamide] the figure was over 25 µM.
`COc1ccccc1S(=O)(=O)N(Cc1ccc(N(CC(=O)O)C(=O)C(=O)O)cc1)Cc1ccc(S(C)(=O)=O)cc1` [Compound 136, N-Carboxymethyl-N-(4-{[(4-methanesulfonyl-benzyl)-(2-methoxy-benzenesulfonyl)-amino]-methyl}-phenyl)-oxalamic acid]: the IC50 is over 25 µM.
As for `COc1ccccc1S(=O)(=O)N(Cc1ccc(S(C)(=O)=O)cc1)Cc1ccc(C(F)(F)P(=O)(O)O)c(Cl)c1` [Compound 137, [(2-Chloro-4-{[(4-methanesulfonyl-benzyl)-(2-methoxy-benzenesulfonyl)-amino]-methyl}-phenyl)-difluoro-methyl]-phosphonic acid], the figure is 0.25 to 0.499 µM; as for `COc1ccccc1S(=O)(=O)N(Cc1ccc(OCc2nnn[nH]2)cc1)Cc1ccc(OCc2nnn[nH]2)cc1` [Compound 138, 2-Methoxy-N,N-bis-[4-(1H-tetrazol-5-ylmethoxy)-benzyl]-benzenesulfonamide], over 25 µM.
With `COc1ccccc1S(=O)(=O)N(Cc1ccc(C#N)cc1)Cc1ccc(NS(=O)(=O)C(F)(F)F)c(C(=O)O)c1` [Compound 139, 5-{[(4-Cyano-benzyl)-(2-methoxy-benzenesulfonyl)-amino]-methyl}-2-trifluoromethanesulfonylamino-benzoic acid] the figure was over 25 µM; with `COc1ccccc1S(=O)(=O)N(Cc1ccc(C#N)cc1)Cc1ccc(CC(C(=O)O)C(=O)O)cc1` [Compound 140, 2-(4-{[(4-Cyano-benzyl)-(2-methoxy-benzenesulfonyl)-amino]-methyl}-benzyl)-malonic acid], over 25 µM.
Regarding `COc1ccccc1S(=O)(=O)N(Cc1ccc(N(C)C(=O)C(=O)O)cc1)Cc1ccc(N(C)C(=O)C(=O)O)cc1` [Compound 141, N-[4-({(2-Methoxy-benzenesulfonyl)-[4-(methyl-oxalyl-amino)-benzyl]-amino}-methyl)-phenyl]-N-methyl-oxalamic acid], the IC50 was over 25 µM.
With `COc1ccccc1S(=O)(=O)N(Cc1cccc(-c2cccc(S(C)(=O)=O)c2)c1)Cc1ccc(C(F)(F)P(=O)(O)O)c(Cl)c1` [Compound 142, [(2-Chloro-4-{[(3′-methanesulfonyl-biphenyl-3-ylmethyl)-(2-methoxy-benzenesulfonyl)-amino]-methyl}-phenyl)-difluoro-methyl]-phosphonic acid] the figure was 0.25 to 0.499 µM; with `COc1ccccc1S(=O)(=O)N(Cc1cccc(-c2ccc(S(C)(=O)=O)cc2)c1)Cc1ccc(C(F)(F)P(=O)(O)O)c(Cl)c1` [Compound 143, [(2-Chloro-4-{[(4′-methanesulfonyl-biphenyl-3-ylmethyl)-(2-methoxy-benzenesulfonyl)-amino]-methyl}-phenyl)-difluoro-methyl]-phosphonic acid], 0.25 to 0.499 µM.
Take `CS(=O)(=O)c1cccc(-c2ccc(S(=O)(=O)N(Cc3ccc(C#N)cc3)Cc3ccc(C(F)(F)P(=O)(O)O)c(Cl)c3)cc2)c1` [Compound 144, [(2-Chloro-4-{[(4-cyano-benzyl)-(3′-methanesulfonyl-biphenyl-4-sulfonyl)-amino]-methyl}-phenyl)-difluoro-methyl]-phosphonic acid]: the IC50 is 0.25 to 0.499 µM.
